{"source": "patent US20150148234A1", "about": "“HERBICIDE-RESISTANT SUNFLOWER PLANTS WITH MULTIPLE HERBICIDE RESISTANT ALLELES OF AHASL1 AND METHODS OF USE” (NIDERA S.A., priority 2013, published 2015)", "assay_in_all_cases": "imazapyr whole plant greenhouse test (Example 2)", "format_in_all_cases": "in vivo", "key": {"[1]": {"tested_on": "sunflower hybrid H3 (L3 × L2), A205V + A122T", "procedure": "(§1) Seeds were sown in Petri dishes and, after germination, plantlets were transplanted to pots of 10 cm of diameter in a potting media consisting of equal parts of vermiculite, soil and sand. Plants were grown in a greenhouse under natural light conditions supplemented with 400 W sodium halide lamps to provide a 16 hr daylength. Day/night temperatures were 25 and 20 ° C., respectively. At the V2-V4 stage (Schneiter & Miller (1981) Crop Sci. 21:901-903) 10 plants of each genotype were randomly assigned to each treatment consisting of eight imazapyr doses (0, 40, 80, 160, 240, 320, 400 and 480 g ai/ha, corresponding to untreated, 0.5×, 1×, 2×, 3×, 4×, 5× and 6×, respectively), and a zero-time biomass determination. Experiment was arranged as a randomized block design with a full factorial (sunflower line×treatment) arrangement of treatments and 10 replications.\n(§2) On the day of herbicide application ten plants of each genotype were cut at the cotyledonal node and dried at 60° C. for 48 hrs for zero-time dried weight determination.\n(§3) The remaining plants were maintained for 14 days after imazapyr treatment (DAT) and their height, Phytotoxicity Index (PI) and above ground dry biomass were determined Height was determined as the distance between the cotyledonal node and the apex of each plant. Above ground biomass data from each line were converted to biomass accumulation after application by subtracting the appropriate average zero- time biomass from each sample. Dry biomass data were converted to percentages of the untreated control plants within each line to allow direct comparisons between groups."}, "sunflower line L2, A205V": {"tested_on": "sunflower line L2, A205V", "procedure": "as §1, §2, §3"}, "[2]": {"tested_on": "sunflower genotypes carrying A122T (mean of H2, L3, L4)", "conditions": "for Phytotoxicity Index (0-9) 14 days after treatment / biomass accumulation 14 days after treatment, % of untreated / plant height 14 days after treatment, % of untreated: A122T Mean; for height reduction: of the untreated controls", "procedure": "as §1, §2, §3"}}, "note": "Marks after values point to notes of the source that are not given here.", "data": [{"smiles": "CC(C)C1(C)N=C(c2ncccc2C(=O)O)NC1=O", "note": "(centres unmarked) [imazapyr]", "values": [{"measurement": "biomass accumulation 14 days after treatment, % of untreated", "setting": "[1]; dose 0.5 (0.5x, 40 g ai/ha)", "value": 99.804, "unit": "%"}, {"measurement": "plant height 14 days after treatment, % of untreated", "setting": "[1]; dose 0.5 (0.5x, 40 g ai/ha)", "value": 98.7, "unit": "%"}, {"measurement": "Phytotoxicity Index (0-9) 14 days after treatment", "setting": "[1]; dose 1 (1x, 80 g ai/ha)", "value": 0.5}, {"measurement": "biomass accumulation 14 days after treatment, % of untreated", "setting": "[1]; dose 1 (1x, 80 g ai/ha)", "value": 100.0, "unit": "%"}, {"measurement": "plant height 14 days after treatment, % of untreated", "setting": "[1]; dose 1 (1x, 80 g ai/ha)", "value": 97.0, "unit": "%"}, {"measurement": "Phytotoxicity Index (0-9) 14 days after treatment", "setting": "[1]; dose 2 (2x, 160 g ai/ha)", "value": 0.5}, {"measurement": "biomass accumulation 14 days after treatment, % of untreated", "setting": "[1]; dose 2 (2x, 160 g ai/ha)", "value": 94.3, "unit": "%"}, {"measurement": "plant height 14 days after treatment, % of untreated", "setting": "[1]; dose 2 (2x, 160 g ai/ha)", "value": 96.7, "unit": "%"}, {"measurement": "Phytotoxicity Index (0-9) 14 days after treatment", "setting": "[1]; dose 3 (3x, 240 g ai/ha)", "value": 0.5}, {"measurement": "biomass accumulation 14 days after treatment, % of untreated", "setting": "[1]; dose 3 (3x, 240 g ai/ha)", "value": 90.8, "unit": "%"}, {"measurement": "plant height 14 days after treatment, % of untreated", "setting": "[1]; dose 3 (3x, 240 g ai/ha)", "value": 93.8, "unit": "%"}, {"measurement": "Phytotoxicity Index (0-9) 14 days after treatment", "setting": "[1]; dose 4 (4x, 320 g ai/ha)", "value": 0.5}, {"measurement": "biomass accumulation 14 days after treatment, % of untreated", "setting": "[1]; dose 4 (4x, 320 g ai/ha)", "value": 87.8, "unit": "%"}, {"measurement": "plant height 14 days after treatment, % of untreated", "setting": "[1]; dose 4 (4x, 320 g ai/ha)", "value": 92.0, "unit": "%"}, {"measurement": "Phytotoxicity Index (0-9) 14 days after treatment", "setting": "[1]; dose 5 (5x, 400 g ai/ha)", "value": 0.6}, {"measurement": "biomass accumulation 14 days after treatment, % of untreated", "setting": "[1]; dose 5 (5x, 400 g ai/ha)", "value": 72.1, "unit": "%"}, {"measurement": "plant height 14 days after treatment, % of untreated", "setting": "[1]; dose 5 (5x, 400 g ai/ha)", "value": 65.4, "unit": "%"}, {"measurement": "Phytotoxicity Index (0-9) 14 days after treatment", "setting": "[1]; dose 6 (6x, 480 g ai/ha)", "value": 1.0}, {"measurement": "biomass accumulation 14 days after treatment, % of untreated", "setting": "[1]; dose 6 (6x, 480 g ai/ha)", "value": 63.2, "unit": "%"}, {"measurement": "plant height 14 days after treatment, % of untreated", "setting": "[1]; dose 6 (6x, 480 g ai/ha)", "value": 58.0, "unit": "%"}, {"measurement": "Phytotoxicity Index (0-9) 14 days after treatment", "setting": "sunflower line L2, A205V; dose 0.5 (0.5x, 40 g ai/ha)", "value": 0}, {"measurement": "biomass accumulation 14 days after treatment, % of untreated", "setting": "sunflower line L2, A205V; dose 0.5 (0.5x, 40 g ai/ha)", "value": 99.2, "unit": "%"}, {"measurement": "plant height 14 days after treatment, % of untreated", "setting": "sunflower line L2, A205V; dose 0.5 (0.5x, 40 g ai/ha)", "value": 99.2, "unit": "%"}, {"measurement": "Phytotoxicity Index (0-9) 14 days after treatment", "setting": "sunflower line L2, A205V; dose 1 (1x, 80 g ai/ha)", "value": 0}, {"measurement": "biomass accumulation 14 days after treatment, % of untreated", "setting": "sunflower line L2, A205V; dose 1 (1x, 80 g ai/ha)", "value": 85.0, "unit": "%"}, {"measurement": "plant height 14 days after treatment, % of untreated", "setting": "sunflower line L2, A205V; dose 1 (1x, 80 g ai/ha)", "value": 98.1, "unit": "%"}, {"measurement": "Phytotoxicity Index (0-9) 14 days after treatment", "setting": "sunflower line L2, A205V; dose 2 (2x, 160 g ai/ha)", "value": 3.1}, {"measurement": "biomass accumulation 14 days after treatment, % of untreated", "setting": "sunflower line L2, A205V; dose 2 (2x, 160 g ai/ha)", "value": 58.1, "unit": "%"}, {"measurement": "plant height 14 days after treatment, % of untreated", "setting": "sunflower line L2, A205V; dose 2 (2x, 160 g ai/ha)", "value": 63.6, "unit": "%"}, {"measurement": "Phytotoxicity Index (0-9) 14 days after treatment", "setting": "sunflower line L2, A205V; dose 3 (3x, 240 g ai/ha)", "value": 3.9}, {"measurement": "biomass accumulation 14 days after treatment, % of untreated", "setting": "sunflower line L2, A205V; dose 3 (3x, 240 g ai/ha)", "value": 48.1, "unit": "%"}, {"measurement": "plant height 14 days after treatment, % of untreated", "setting": "sunflower line L2, A205V; dose 3 (3x, 240 g ai/ha)", "value": 51.9, "unit": "%"}, {"measurement": "Phytotoxicity Index (0-9) 14 days after treatment", "setting": "sunflower line L2, A205V; dose 4 (4x, 320 g ai/ha)", "value": 5.9}, {"measurement": "biomass accumulation 14 days after treatment, % of untreated", "setting": "sunflower line L2, A205V; dose 4 (4x, 320 g ai/ha)", "value": 28.8, "unit": "%"}, {"measurement": "plant height 14 days after treatment, % of untreated", "setting": "sunflower line L2, A205V; dose 4 (4x, 320 g ai/ha)", "value": 27.5, "unit": "%"}, {"measurement": "Phytotoxicity Index (0-9) 14 days after treatment", "setting": "sunflower line L2, A205V; dose 5 (5x, 400 g ai/ha)", "value": 6.9}, {"measurement": "biomass accumulation 14 days after treatment, % of untreated", "setting": "sunflower line L2, A205V; dose 5 (5x, 400 g ai/ha)", "value": 27.4, "unit": "%"}, {"measurement": "plant height 14 days after treatment, % of untreated", "setting": "sunflower line L2, A205V; dose 5 (5x, 400 g ai/ha)", "value": 26.0, "unit": "%"}, {"measurement": "Phytotoxicity Index (0-9) 14 days after treatment", "setting": "sunflower line L2, A205V; dose 6 (6x, 480 g ai/ha)", "value": 6.7}, {"measurement": "biomass accumulation 14 days after treatment, % of untreated", "setting": "sunflower line L2, A205V; dose 6 (6x, 480 g ai/ha)", "value": 24.9, "unit": "%"}, {"measurement": "plant height 14 days after treatment, % of untreated", "setting": "sunflower line L2, A205V; dose 6 (6x, 480 g ai/ha)", "value": 29.3, "unit": "%"}, {"measurement": "Phytotoxicity Index (0-9) 14 days after treatment", "setting": "[2]; dose 0.5 (0.5x, 40 g ai/ha)", "value": 0.3}, {"measurement": "biomass accumulation 14 days after treatment, % of untreated", "setting": "[2]; dose 0.5 (0.5x, 40 g ai/ha)", "value": 98.9, "unit": "%"}, {"measurement": "plant height 14 days after treatment, % of untreated", "setting": "[2]; dose 0.5 (0.5x, 40 g ai/ha)", "value": 99.9, "unit": "%"}, {"measurement": "Phytotoxicity Index (0-9) 14 days after treatment", "setting": "[2]; dose 1 (1x, 80 g ai/ha)", "value": 0.3}, {"measurement": "biomass accumulation 14 days after treatment, % of untreated", "setting": "[2]; dose 1 (1x, 80 g ai/ha)", "value": "96.7* %"}, {"measurement": "plant height 14 days after treatment, % of untreated", "setting": "[2]; dose 1 (1x, 80 g ai/ha)", "value": 99.5, "unit": "%"}, {"measurement": "Phytotoxicity Index (0-9) 14 days after treatment", "setting": "[2]; dose 2 (2x, 160 g ai/ha)", "value": 0.3}, {"measurement": "biomass accumulation 14 days after treatment, % of untreated", "setting": "[2]; dose 2 (2x, 160 g ai/ha)", "value": "92.2** %"}, {"measurement": "plant height 14 days after treatment, % of untreated", "setting": "[2]; dose 2 (2x, 160 g ai/ha)", "value": 98.0, "unit": "%"}, {"measurement": "Phytotoxicity Index (0-9) 14 days after treatment", "setting": "[2]; dose 3 (3x, 240 g ai/ha)", "value": 0.3}, {"measurement": "biomass accumulation 14 days after treatment, % of untreated", "setting": "[2]; dose 3 (3x, 240 g ai/ha)", "value": "90.0** %"}, {"measurement": "plant height 14 days after treatment, % of untreated", "setting": "[2]; dose 3 (3x, 240 g ai/ha)", "value": "95.7* %"}, {"measurement": "Phytotoxicity Index (0-9) 14 days after treatment", "setting": "[2]; dose 4 (4x, 320 g ai/ha)", "value": 0.5}, {"measurement": "biomass accumulation 14 days after treatment, % of untreated", "setting": "[2]; dose 4 (4x, 320 g ai/ha)", "value": "85.7** %"}, {"measurement": "plant height 14 days after treatment, % of untreated", "setting": "[2]; dose 4 (4x, 320 g ai/ha)", "value": "94.6** %"}, {"measurement": "Phytotoxicity Index (0-9) 14 days after treatment", "setting": "[2]; dose 5 (5x, 400 g ai/ha)", "value": 0.8}, {"measurement": "biomass accumulation 14 days after treatment, % of untreated", "setting": "[2]; dose 5 (5x, 400 g ai/ha)", "value": "74.3** %"}, {"measurement": "plant height 14 days after treatment, % of untreated", "setting": "[2]; dose 5 (5x, 400 g ai/ha)", "value": "85.4** %"}, {"measurement": "Phytotoxicity Index (0-9) 14 days after treatment", "setting": "[2]; dose 6 (6x, 480 g ai/ha)", "value": 1.2}, {"measurement": "biomass accumulation 14 days after treatment, % of untreated", "setting": "[2]; dose 6 (6x, 480 g ai/ha)", "value": "69.9** %"}, {"measurement": "plant height 14 days after treatment, % of untreated", "setting": "[2]; dose 6 (6x, 480 g ai/ha)", "value": "81.2** %"}, {"measurement": "height reduction", "setting": "[2]; A122T homozygous, 0.5x", "value": 0.1, "unit": "%"}, {"measurement": "height reduction", "setting": "[2]; A122T homozygous, 6x", "value": 18.8, "unit": "%"}, {"measurement": "reduction of biomass weight", "setting": "[2]; A122T homozygous, higher dose (6x)", "value": 25, "unit": "%"}]}]}
